Measured values published in patent US6979690B2, “Oxo or oxy-pyridine compounds as 5-HT4 receptor modulators” (Pfizer Inc., priority 2002, dated 2005).

SMILES	melting point
COc1nc(N)c(Cl)cc1C(=O)CCC1CCNCC1.Cl	230.6 °C
CCCCN1CCC(CCC(=O)c2cc(Cl)c(N)nc2OC)CC1 [Example 10, 1-[6-Amino-5-chloro-2-(methoxy)-3-pyridinyl]-3-(1-butyl-4-piperidinyl)-1-propanone]	86 to 87 °C
CCCCN1CCC(CCC(=O)c2ccc(N)nc2OC)CC1 [Example 12, 1-(6-Amino-2-methoxy-3-pyridinyl)-3-(1-butyl-4-piperidinyl)-1-propanone]	85 to 89 °C
COc1nc(N)c(Cl)cc1C(=O)CCC1CCN(CC(C)C)CC1 [Example 14, 1-(6-Amino-5-chloro-2-methoxy-3-pyridinyl)-3-(1-isobutyl-4-piperidinyl)-1-propanone]	128 °C
COc1nc(N)ccc1C(=O)CCC1CCN(CC2CCCCC2)CC1 [Example 16, 1-(6-Amino-2-methoxy-3-pyridinyl)-3-[1-(cyclohexylmethyl)-4-piperidinyl]-1-propanone]	73.2 °C
COc1nc(N)c(Cl)cc1C(=O)CCC1CCN(CC(O)C(C)(C)C)CC1 (stereo not drawn) [Example 107, 1-(6-Amino-5-chloro-2-methoxypyridin-3-yl)-3-[1-(2-hydroxy-3,3-dimethylbutyl)piperidine-4-yl]propan-1-one]	134 °C
COc1nc(N)c(Cl)cc1C(=O)CCC1CCN(CC(C)(C)O)CC1 [Example 109, 1-(6-Amino-5-chloro-2-methoxypyridin-3-yl)-3-[1-(2-hydroxy-2-methylpropyl)piperidine-4-yl]propan-1-one]	108.1 °C

Second part, the molecule after the results:

melting point	SMILES
136 to 140 °C	CCN1CCC(CNC(=O)c2cc(Cl)c(N)[nH]c2=O)CC1 [Example 1, 6-Amino-5-chloro-N-[(1-ethyl-4-piperidinyl)methyl]-2-oxo-1,2-dihydro-3-pyridinecarboxamide]
131 to 135 °C	CC(C)CCN1CCC(CNC(=O)c2cc(Cl)c(N)[nH]c2=O)CC1 [Example 5, 6-Amino-5-chloro-N-{[1-(3-methylbutyl)-4-piperidinyl]methyl}-2-oxo-1,2-dihydro-3-pyridinecarboxamide]
128 to 133 °C	CC(C)CN1CCC(CNC(=O)c2cc(Cl)c(N)[nH]c2=O)CC1 [Example 6, 6-Amino-5-chloro-N-{[1-(2-methylpropyl)-4-piperidinyl]methyl}-2-oxo-1,2-dihydro-3-pyridinecarboxamide]
162 to 164 °C	CCOC(=O)CN1CCC(CNC(=O)c2cc(Cl)c(N)[nH]c2=O)CC1 [Example 7, Ethyl [4-({[(6-amino-5-chloro-2-oxo-1,2-dihydro-3-pyridinyl)carbonyl]amino}methyl)-1-piperidinyl]acetate]
200 to 203 °C	CC(C)(C)OC(=O)CN1CCC(CNC(=O)c2cc(Cl)c(N)[nH]c2=O)CC1 [Example 8, 1,1-Dimethylethyl [4-({[(6-amino-5-chloro-2-oxo-1,2-dihydro-3-pyridinyl)carbonyl]amino}methyl)-1-piperidinyl]acetate]
175 °C	CC(C)CN1CCC(CCC(=O)c2cc(Cl)c(N)[nH]c2=O)CC1 [Example 15, 6-Amino-5-chloro-3-[3-(1-isobutyl-4-piperidinyl)propanoyl]-2(1H)-pyridinone]
164.3 °C	Nc1[nH]c(=O)c(C(=O)CCC2CCN(CC3CCCCC3)CC2)cc1Cl [Example 106, 6-Amino-5-chloro-3-{3-[1-(cyclohexylmethyl)piperidine-4-yl]propanoyl}pyridin-2(1H)-one]
211.3 °C	CC(C)(C)C(O)CN1CCC(CCC(=O)c2cc(Cl)c(N)[nH]c2=O)CC1 (stereo not drawn) [Example 108, 6-Amino-5-chloro-3-{3-[1-(2-hydroxy-3,3-dimethylbutyl)-piperidine-4-yl]propanoyl}pyridin-2(1H)-one]
